According to patent US9833431B2, “Pharmaceutical combinations for the treatment of cancer” (Pitney Pharmaceuticals Pty Limited, priority 2013, dated 2017):
“Also recorded” adds a separate entry of the source. Like-named read-outs stand apart in the source and are kept apart here.

Experiments:
[1] = test system: OVCAR-3 and A2780; format: cell-based, human; details: Example 2; cell line not given
[2] = test system: OVCAR-3; experiment: SRB cytotoxicity / proliferation assay, OVCAR-3 cells; details: for Interaction of the drug with MPL (synergy), in words: OVCAR-3 cells, concentrations as stated in the figure
Description: (§2) Cells were seeded in 96-well plates (2,000-3,000 cells/well) and culture overnight prior to treatment with MPL. Control cultures were treated with ethanol alone.
(§3) Cytotoxicity was assessed using the sulforhodamine B (SRB) assay and reported as half maximal inhibitory concentration (IC50; Table 3). Cells were seeded in 96-well plates (2,000-3,000 cells/well), treated with the indicated compound(s) for 72 h, fixed, washed and stained with 100 μl of 0.4% (w/v) SRB dissolved in 1% acetic acid. Unbound dye was removed by five washes with 1% acetic acid before air-drying.
(§4) In order to evaluate the effect of MPL on the in vitro efficacy of an established drug was evaluated using cell viability and cell proliferation assays. Cell viability was conducted according to standard Trypan Blue method. Cell proliferation was assessed using the sulforhodamine B (SRB) assay. For viability experiments, cells were seeded in 6 well plates, whereas for proliferation assays cells were grown in 96 well plates. Following over-night attachment, cells were treated with the intended drug at various concentrations either alone or in combination with monepantel (MPL) for 72 h. Parallel to this, cells treated with MPL alone were also deployed for comparative purposes. Following incubation for 72 h in a standard cell culture incubator, effect of mono and combined drug treatments on cell viability and/or cell proliferation was assessed through using Trypan Blue or SRB assays respectively.
(§5) For viability assay, at the end of treatment period, cells were washed with PBS, trypsinized and counted using Trypan blue and hemocytometer. For the SRB assay cells were fixed, washed and stained with 100 μl of 0.4% (w/v) SRB dissolved in 1% acetic acid. Unbound dye was removed by five washes with 1% acetic acid before air drying. […] Monepantel (gift by Novartis, Basel, Switzerland) was dissolved in 100% ethanol and then diluted with the cell culture media.
(§6) MPL (5 μM) and combination drugs were applied for 72 h unless indicated.

[3] = test system: A2780; experiment: SRB cytotoxicity / proliferation assay, A2780 cells; details: for Interaction of the drug with MPL (synergy), in words: 72 h
Description: as §2
(§7) Cells were seeded in 96-well plates (2,000-3,000 cells/well), treated with the indicated compound(s) for 72 h, fixed, washed and stained with 100 μl of 0.4% (w/v) SRB dissolved in 1% acetic acid. Unbound dye was removed by five washes with 1% acetic acid before air-drying.
Cell viability was conducted according to standard Trypan Blue method. Cell proliferation was assessed using the sulforhodamine B (SRB) assay. For viability experiments, cells were seeded in 6 well plates, whereas for proliferation assays cells were grown in 96 well plates. Following over-night attachment, cells were treated with the intended drug at various concentrations either alone or in combination with monepantel (MPL) for 72 h. Parallel to this, cells treated with MPL alone were also deployed for comparative purposes. Following incubation for 72 h in a standard cell culture incubator, effect of mono and combined drug treatments on cell viability and/or cell proliferation was assessed through using Trypan Blue or SRB assays respectively.
as §5

[4] = test system: Hep3B; experiment: SRB cytotoxicity assay, Hep3B cells; format: cell-based, human; details: Hep3B cells; MPL at 5 μM; 48 h; FIG. 24
Description: (§1) All cell lines described herein were purchased from ATCC. […] Control cultures were treated with ethanol alone.

[5] = test system: PET; experiment: SRB cytotoxicity assay, PET cells; format: cell-based, human; details: PET mesothelioma cells; 72 h; FIG. 25
Description: as §1

[6] = test system: LN-18; experiment: SRB cytotoxicity assay, LN-18 cells; format: cell-based, human; details: 72 h; for Interaction of the drug with MPL (synergy), in words: LN18 cells, FIG. 21
Description: as §1

[7] = test system: U87; experiment: SRB cytotoxicity assay, U87 cells; format: cell-based, human; details: U87 cells; 72 h; FIG. 21
Description: as §1

[8] = test system: YOU; experiment: SRB cytotoxicity assay, YOU cells; format: cell-based, human; details: YOU mesothelioma cells; 72 h; FIG. 25
Description: as §1

[9] = test system: REN; experiment: SRB cytotoxicity assay, REN cells; format: cell-based, human; details: REN mesothelioma cells; 72 h; FIG. 25
Description: as §1

[10] = test system: AsPC1; experiment: SRB cytotoxicity assay, AsPC1 cells; format: cell-based, human; details: AsPC-1 cells; 72 h; FIG. 23
Description: as §1

[11] = test system: C170; experiment: SRB cytotoxicity assay, C170 cells; format: cell-based; details: C170 cells; MPL 5 μM; 5-FU 20 μM, gemcitabine 0.5 μM, oxaliplatin 1 μM; 72 h; FIG. 27
Description: as §1

[12] = test system: CFPAC-1; experiment: SRB cytotoxicity assay, CFPAC-1 cells; details: CFPAC-1 cells, 72 h
Description: as §2, §3, §6

[13] = test system: HOSE; experiment: SRB cytotoxicity assay, HOSE non-malignant control cells; details: for Interaction of the drug with MPL (synergy), in words: HOSE non-malignant control cells, concentrations as stated at the place or in the figure
Description: (§8) All cell lines described herein were purchased from ATCC. Cells were seeded in 96-well plates (2,000-3,000 cells/well) and culture overnight prior to treatment with MPL. Control cultures were treated with ethanol alone.
as §7
(§9) Corresponding cytotoxicity of the major metabolite MPL-SO2 has also been tested where indicated. […] HUVEC, human fetal astrocytes and HOSE cells are non-transformed, non-immortalized and non-malignant, freshly isolated/low passage number cell populations, from apparently healthy non-diseased tissue. These healthy cell populations were included in the experimental series as controls for non-specific toxicity. Both MPL and MPL-SO2 were suspended in ethanol and applied in final concentrations of 0.5 to 1% ethanol in the respective culture media.
as §4
(§10) For viability assay, at the end of treatment period, cells were washed with PBS, trypsinized and counted using Trypan blue and hemocytometer. For the SRB assay cells were fixed, washed and stained with 100 μl of 0.4% (w/v) SRB dissolved in 1% acetic acid. Unbound dye was removed by five washes with 1% acetic acid before air drying. […] Monepantel (gift by Novartis, Basel, Switzerland) was dissolved in 100% ethanol and then diluted with the cell culture media. Other agents employed in the study were purchased either from Sigma Australia or Sapphire Australia, prepared and preserved for cell culture use according to supplier instructions.
as §6

[14] = test system: HT-29; experiment: cells; format: cell-based; details: 72 h
Description: as §1

[15] = test system: IGROV-1; experiment: SRB cytotoxicity assay, IGROV-1 cells; format: cell-based; details: Homo sapiens, IGROV-1, malignant, ovarian, 72 h
Description: as §1

[16] = test system: HUVEC; experiment: SRB cytotoxicity assay, HUVEC; format: cell-based; details: Homo sapiens, non-malignant, endothelial, 72 h
Description: as §1

[17] = test system: SKOV-3; experiment: SRB cytotoxicity assay, SKOV-3 cells; format: cell-based; details: Homo sapiens, SK-OV-3, SKOV-3, malignant, ovarian, 72 h
Description: as §1

[18] = test system: 1A9; experiment: SRB cytotoxicity assay, 1A9 cells; format: cell-based; details: Homo sapiens, 1A9, malignant, ovarian, 72 h
Description: as §1

[19] = test system: all cell lines and cells tested; experiment: SRB cytotoxicity assay, all cells of Table 3; format: cell-based
Description: as §1

[20] = test system: CHO; experiment: SRB cytotoxicity assay, CHO cells; format: cell-based; details: Cricetulus griseus, immortalised, ovarian, 72 h
Description: as §1

[21] = test system: HaCat; experiment: SRB cytotoxicity assay, HaCat cells; format: cell-based; details: Homo sapiens, immortalised, epidermal, 72 h
Description: as §1

[22] = test system: MCF-7; experiment: SRB cytotoxicity assay, MCF-7 cells; format: cell-based; details: Homo sapiens, MCF7, 72 h, MCF-7, malignant, breast
Description: as §1

[23] = test system: HOSE
Description: as §8, §7, §9, §4, §10, §6

[24] = A2780 cells, concentrations as stated at the place or in the figure

For `NC(Cc1c[nH]cn1)C(=O)O` (racemic) [DL-histidine], the “effect of combination with MPL, in words” value [1] was “no effect” and the “Interaction of the drug with MPL (synergy), in words” value ([2]; 72 h) was “no synergistic effect”.
`CCCSc1ccc2nc(NC(=O)OC)[nH]c2c1` [A8Z, albendazole] was tested, and the “Interaction of the drug with MPL (synergy), in words” value [3, 24] was “good synergistic effect”.
With `CN/C(=N/CCSCc1nc[nH]c1C)NC#N` [Cimetidine] the “Interaction of the drug with MPL (synergy), in words” value [3, 24] was “significant combination synergistic effect”.
`N.N.[Cl][Pt][Cl]` [Cisplatin, cis-diamminedichloroplatinum(II)] was tested, and the “Interaction of the drug with MPL (synergy), in words” value [3, 24] was “some increase of effect” and the “Interaction of the drug with MPL (synergy), in words” value [4] was “No synergy was observed”.
In the case of `COc1cc2c(c(OC)c1OC)-c1ccc(OC)c(=O)cc1[C@@H](NC(C)=O)CC2` [Colchicine], the “Interaction of the drug with MPL (synergy), in words” value [3, 24] is reported as “cytotoxic effect” and the “Interaction of the drug with MPL (synergy), in words” value ([3]; A2780 cells, concentrations as stated at the place or in the figure, listed as colchicine) is reported as “synergistic effect; also recorded: synergistic cytotoxicity”.
With `COc1cccc2c1C(=O)c1c(O)c3c(c(O)c1C2=O)C[C@@](O)(C(=O)CO)C[C@@H]3O[C@H]1C[C@H](N)[C@H](O)[C@H](C)O1` [Doxorubicin] the “Interaction of the drug with MPL (synergy), in words” value [5] was “synergistic interaction; also recorded: synergistic inhibition”, the “Interaction of the drug with MPL (synergy), in words” value ([3]; A2780 cells, concentrations as stated in the figure) was “synergy; also recorded: synergistic interaction; also recorded: synergistic inhibition” and the “doxorubicin concentration in the absence of MPL equivalent to doxorubicin (10 nM) in the presence of MPL (5 μM)” value ([3]; A2780 cells, FIG. 1) was 1000 nM. The IC50 ([3]; read-out: IC50 value, cell proliferation, A2780 cells, with addition of 5 μM MPL, approximate values, FIG. 1) was ~1 nM, the IC50 ([3]; read-out: IC50 value, cell proliferation, A2780 cells, without MPL, approximate values, FIG. 1) was ~500 nM and the “Interaction of the drug with MPL (synergy), in words” value [6] was “synergistic interaction; also recorded: synergistic inhibition”. The “Interaction of the drug with MPL (synergy), in words” value [7] was “synergistic interaction; also recorded: synergistic inhibition”, the “Interaction of the drug with MPL (synergy), in words” value [8] was “synergistic interaction; also recorded: synergistic inhibition” and the “Interaction of the drug with MPL (synergy), in words” value [4] was “synergistic cytotoxicity; also recorded: synergistically inhibits; also recorded: synergistically cytotoxic”. For the same molecule, the “Interaction of the drug with MPL (synergy), in words” value [9] was “synergistic interaction; also recorded: synergistic inhibition”, the “Interaction of the drug with MPL (synergy), in words” value [10] was “do not display a synergistic interaction” and the “Interaction of the drug with MPL (synergy), in words” value ([2]; 72 h) was “synergistic interaction; also recorded: synergistic inhibition; also recorded: synergistic cytotoxic effect”.
In the case of `O=c1[nH]cc(F)c(=O)[nH]1` [Fluorouracil], the “Interaction of the drug(s) with MPL (synergy), in words” value (from here on “Interaction of the drug(s) with MPL”) [11] is reported as “synergistic cytotoxicity” and the “effect of combination with MPL, in words” value [1] is reported as “significant increase in the effect”.
`Nc1ccn([C@@H]2O[C@H](CO)[C@@H](O)C2(F)F)c(=O)n1` [Gemcitabine] was tested, and the “Interaction of the drug with MPL (synergy), in words” value [5] was “do not display a synergistic interaction”, the “Interaction of the drug(s) with MPL” value [11] was “synergistic cytotoxicity” and the “Interaction of the drug with MPL (synergy), in words” value [3, 24] was “strong synergistic interaction”. For the same molecule, the “Interaction of the drug with MPL (synergy), in words” value ([3]; A2780 cells, concentrations as stated at the place or in the figure, listed as gemcitabine) was “synergistically inhibits”, the “Interaction of the drug with MPL (synergy), in words” value [6] was “synergistic interaction; also recorded: synergistically inhibits” and the “Interaction of the drug with MPL (synergy), in words” value ([12]; 5 μM MPL, FIG. 23) was “synergistic interaction; also recorded: synergistically exerted a cytotoxic effect”. For the same molecule, the “Interaction of the drug(s) with MPL” value ([12]; 10 μM MPL, data not shown) was “synergistically exerted a cytotoxic effect”, the “effect of combination with MPL, in words” value [1] was “notable increase in efficacy” and the “Interaction of the drug with MPL (synergy), in words” value [8] was “do not display a synergistic interaction”. The “Interaction of the drug with MPL (synergy), in words” value ([13]; 72 h) was “do not display the same synergistic interaction”, the “Interaction of the drug with MPL (synergy), in words” value ([13]; 72 h, listed as gemcitabine) was “do not display a synergistic interaction; also recorded: without displaying a synergistic interaction” and the “Interaction of the drug with MPL (synergy), in words” value [4] was “No synergy was observed”. The “Interaction of the drug(s) with MPL” value ([14]; HT29 cells, MPL 5 μM, 5-FU 20 μM, gemcitabine 0.5 μM, oxaliplatin 1 μM, FIG. 27) was “synergistic cytotoxicity”, the “Interaction of the drug with MPL (synergy), in words” value [9] was “do not display a synergistic interaction” and the “Interaction of the drug with MPL (synergy), in words” value [10] was “strong synergistic interaction; also recorded: synergistically inhibits”.
`N[C@@H](Cc1c[nH]cn1)C(=O)O` [L-histidine] was tested, and the “effect of combination with MPL, in words” value [1] was “no effect” and the “Interaction of the drug with MPL (synergy), in words” value ([2]; 72 h) was “no synergistic effect”.
For `c1ccc([C@H]2CN3CCSC3=N2)cc1` [Levamisole], the “Interaction of the drug with MPL (synergy), in words” value [3, 24] was “did not display a synergistic effect”, the “Interaction of the drug with MPL (synergy), in words” value ([3]; A2780 cells, concentrations as stated at the place or in the figure, listed as levamisole) was “does not display a synergistic cytotoxicity” and the “synergistic cytotoxic effect with MPL, predicted” value ([3]; A2780 cells, levamisole at higher concentrations) was “may exert a synergistic cytotoxic effect”. For the same molecule, the “Synergistic cytotoxicity between MPL and combined drug” value ([2]; OVCAR-3, 5 μM MPL + drug, 72 h, Table 7) was “✓^3” and the “Interaction of the drug with MPL (synergy), in words” value ([2]; 72 h) was “significant synergistic effect; also recorded: does so against OVCAR-3 cells”.
In the case of `C[C@](C#N)(COc1cc(C#N)ccc1C(F)(F)F)NC(=O)c1ccc(S(=O)(=O)C(F)(F)F)cc1` [MPL-SO2, monepantel sulphone], the IC50 [15] is reported as 4.4 ± 1.5 µM, the IC50 ([3]; Homo sapiens, A2780, 72 h) is reported as 4200 ± 2100 nM and the IC50 [16] is reported as 47 µM. The IC50 ([6]; Homo sapiens, LN-18, malignant, glial, SRB) was 6.6 ± 0.7 µM, the IC50 [17] was 26 µM and the IC50 [18] was 3.4 ± 0.1 µM. The “cytotoxicity compared with MPL” value [19] was “generally comparable to the parent compound”, the IC50 [20] was 73.7 ± 6.9 µM and the IC50 ([14]; Homo sapiens, HT-29, malignant, colorectal, SRB) was 2800 ± 700 nM. For the same molecule, the IC50 [21] was 42.7 ± 8 µM, the IC50 [22] was 8 ± 0.7 µM and the IC50 ([2]; Homo sapiens, OVCAR-3, 72 h) was 5.5 ± 1.3 µM.
In the case of `CC#C[C@]1(O)CC[C@H]2[C@@H]3CCC4=CC(=O)CCC4=C3[C@@H](c3ccc(N(C)C)cc3)C[C@@]21C` [Mifepristone], the “Interaction of the drug with MPL (synergy), in words” value [3, 24] is reported as “significant combination synergistic effect”.
`CN(C)c1ccc(O)c2c1C[C@H]1C[C@H]3[C@H](N(C)C)C(O)=C(C(N)=O)C(=O)[C@@]3(O)C(O)=C1C2=O` [Mino, minocycline] was tested, and the “B) Double treatment with MPL: synergistic cytotoxicity, one symbol per experiment” value ([13]; HOSE, MPL 5.0 μM + Mino (5 μM), 72 h) was “✓✓✓”, the “B) Double treatment with MPL: synergistic cytotoxicity, one symbol per experiment” value ([2]; OVCAR-3, MPL 5.0 μM + Mino (5 μM), 72 h) was “✓✓✓” and the “B) Double treatment with MPL: synergistic cytotoxicity, one symbol per experiment” value ([2]; OVCAR-3, MPL 5.0 μM + Mino (10 μM), 72 h) was “✓✓✓”.
In the case of `O=C1[O][Pt]2([NH][C@@H]3CCCC[C@H]3[NH]2)[O]C1=O` [Oxaliplatin], the “Interaction of the drug with MPL (synergy / additive cytotoxicity), in words” value [23] is reported as “does not exert any additive cytotoxic effect” and the “Interaction of the drug with MPL (synergy / additive cytotoxicity), in words” value ([13]; HOSE cells, MPL at 5 μM, 48 h, FIG. 24) is reported as “does not display a synergistic cytotoxicity”.
In the case of `CC/C(=C(\c1ccccc1)c1ccc(OCCN(C)C)cc1)c1ccccc1` [Tamoxifen], the “effect of combination with MPL, in words” value [1] is reported as “significant increase in the effect”.
In the case of `Cn1c(=O)c2c(ncn2C)n(C)c1=O` [caffeine], the “Interaction of the drug with MPL (synergy), in words” value ([2]; 72 h) is reported as “no synergistic effect”.
With `NCC(=O)O` [glycine] the “effect of combination with MPL, in words” value [1] was “no effect” and the “Interaction of the drug with MPL (synergy), in words” value ([2]; 72 h) was “no synergistic effect”.
Ivermectin was tested, and the “effect of the drug alone” value ([3]; A2780 (ovarian)) was “inhibited” and the “Interaction of the drug with MPL (synergy), in words” value [3, 24] was “synergistic effect”.
